According to US20140128412A1, “COMBINATION OF AN ANT[…] AN ANTI-INFLAMMATORY AGENT” (priority 2011, published 2014):

Columns and labels:
Format in all cases: in vivo, human
[1] = test system: plasma IL-1β; test: Plasma IL-1β level by ELISA in the double-blind clinical trial; details: schizophrenic patients, FIG. 3A
From the text: (§1) One hundred and thirty-seven Han Chinese schizophrenic patients and 67 Han Chinese healthy controls (age range: 20-59 years old) were recruited from the Department of Psychiatry at National Cheng Kung University Hospital and the National Defense Medical Center. All patients were screened for being used. The Chinese version of the SADS-L, which has good reliability and validity, was used to screen all participants for psychiatric conditions and whether they fit the DSM-IV diagnostic criteria for schizophrenia without any comorbidity. […]
(§2) Ten milliliters of whole blood was drawn and collected from each participant's antecubital vein at the screening visit (V), 0, 1, 2, 4, 6, 8, and 11 weeks. […] Plasma cytokine, CRP and BDNF concentrations were quantified using enzyme-linked immunosorbent assays (ELISA). A kit (Quantikine Human Cytokine kit; R&D Systems) and an ELISA reader (SpectraMax-M2; Molecular Devices) ELISA reader were used to analysis plasma IL-1β, TNF-α, CRP, and BDNF levels. […]

[2] = test system: plasma BDNF; test: Plasma BDNF level by ELISA in the double-blind clinical trial; details: schizophrenic patients, after 11 weeks of treatment; FIG. 3D
From the text: as §1, §2

[3] = test system: plasma CRP; test: Plasma CRP level by ELISA in the double-blind clinical trial; details: schizophrenic patients, FIG. 3C
From the text: One hundred and thirty-seven Han Chinese schizophrenic patients and 67 Han Chinese healthy controls (age range: 20-59 years old) were recruited from the Department of Psychiatry at National Cheng Kung University Hospital and the National Defense Medical Center. All patients were screened for being used. The Chinese version of the SADS-L, which has good reliability and validity, was used to screen all participants for psychiatric conditions and whether they fit the DSM-IV diagnostic criteria for schizophrenia without any comorbidity. Exclusion conditions were: 1) pregnant or nursing women; 2) women of childbearing potential not using adequate contraception as per investigator judgment or not willing to use contraception for the duration of study; 3) patients who had used dextromethorphan, other selective cyclooxygenase 2 inhibitors, or other anti-inflammatory medication within 1 week before the first dose of double-blind medication; 4) a major mental illness other than schizophrenia, including alcoholism and illegal substance use disorder; 5) a clinically significant medical condition, e.g., cardiac, hepatic, or renal disease with current evidence of poor control; 6) patient who had undergone electroconvulsive therapy within 4 weeks before the first dose of double-blind medication; 7) SGOT, SGPT, BUN, and creatinine levels/an SGOT, SGPT, BUN, or creatinine level greater than 3-fold the upper limit of normal. All the healthy controls were free of major and minor mental illness. […]
as §2

[4] = test system: plasma TNF-α; test: Plasma TNF-α level by ELISA in the double-blind clinical trial; details: schizophrenic patients, FIG. 3B
From the text: One hundred and thirty-seven Han Chinese schizophrenic patients and 67 Han Chinese healthy controls (age range: 20-59 years old) were recruited from the Department of Psychiatry at National Cheng Kung University Hospital and the National Defense Medical Center. All patients were screened for being used. The Chinese version of the SADS-L, which has good reliability and validity, was used to screen all participants for psychiatric conditions and whether they fit the DSM-IV diagnostic criteria for schizophrenia without any comorbidity. Exclusion conditions were: 1) pregnant or nursing women; 2) women of childbearing potential not using adequate contraception as per investigator judgment or not willing to use contraception for the duration of study; 3) patients who had used dextromethorphan, other selective cyclooxygenase 2 inhibitors, or other anti-inflammatory medication within 1 week before the first dose of double-blind medication; 4) a major mental illness other than schizophrenia, including alcoholism and illegal substance use disorder; 5) a clinically significant medical condition, e.g., cardiac, hepatic, or renal disease with current evidence of poor control; 6) patient who had undergone electroconvulsive therapy within 4 weeks before the first dose of double-blind medication; 7) SGOT, SGPT, BUN, and creatinine levels/an SGOT, SGPT, BUN, or creatinine level greater than 3-fold the upper limit of normal. All the healthy controls were free of major and minor mental illness. All research involving humans was reviewed and approved by the National Chung Kung University and National Defense Medical Center Institutional Review Boards before the study began.
This study was a double-blind, stratified, randomized, parallel-group, two-center clinical trial. The treatment was risperidone plus a double-blind add-on of randomly assigned DM or a placebo. Participants began the study immediately after they had been screened for eligibility (screening visit: V). The pre-treatment study phase consisted of a 7-day (V to 0 week) antipsychotic switch-over period for patients (patient hospitalized) who were taking oral antipsychotic medication other than risperidone alone at the screening, or who had been using depot medication for an entire cycle before the screening. […]
as §2

In the case of `Cc1nc2n(c(=O)c1CCN1CCC(c3noc4cc(F)ccc34)CC1)CCCC2` [Risp only, risperidone], the “change in plasma IL-1β levels” value ([1]; after 11 weeks of treatment, risperidone 1-6 mg/day, DM 60 mg/day) was “significant decrease”, the “time after which plasma IL-1β level fell” value [1] was 8 weeks and the “change in plasma BDNF levels” value [2] was “did not change”. For the same compound, the “plasma CRP level at start (first value of 'from ... to')” value ([3]; before add-on treatment, mean±SEM) was 2576.0±484.0, the “plasma CRP level at end (second value of 'from ... to')” value ([3]; end of treatment, mean±SEM) was 1946.0±369.6 and the “change in plasma CRP levels” value ([3]; over the study) was “tended to decrease but were not significantly different”. The “plasma TNF-α levels at the end of the study” value ([4]; end of study (11 weeks) vs visit) was “significantly higher”, the “course of plasma TNF-α levels during the study” value ([4]; visit to 11 weeks) was “rose significantly” and the “time after which plasma TNF-α levels rose significantly” value [4] was 4 weeks. For the same compound, the “time of peak plasma TNF-α level” value [4] was 6 weeks.
